Columns and labels:
Assay in all cases: drug activity profiling cytotoxicity
Assay type in all cases: cell-based
639-V = details: Homo sapiens; 639-V cell line, Bladder; read-out: Aza-T-dCyd IC50
Outline: (§1)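 Values come from a cytotoxicity profile of Aza-T-dCyd generated over a collection of 200 cancer cell lines.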

C32TG = C32TG cell line, Skin (Melanoma); read-out: Aza-T-dCyd IC50
Outline: as §1

COR-L105 = details: Homo sapiens; COR-L105 cell line, Lung (NSCLC); read-out: Aza-T-dCyd IC50
Outline: as §1

Caki-2 = details: Homo sapiens; Caki-2 cell line, Kidney; read-out: Aza-T-dCyd IC50
Outline: as §1

D283 Med = details: Homo sapiens; D283 Med cell line, CNS (Medulloblastoma); read-out: Aza-T-dCyd IC50
Outline: as §1

DBTRG-05MG = details: Homo sapiens; DBTRG-05MG cell line, CNS (Glioma); read-out: Aza-T-dCyd IC50
Outline: as §1

Daoy = details: Homo sapiens; Daoy cell line, CNS (Medulloblastoma); read-out: Aza-T-dCyd IC50
Outline: as §1

H4 = H4 cell line, CNS (Glioma); read-out: Aza-T-dCyd IC50
Outline: as §1

Hs 578T = details: Homo sapiens; Hs 578T cell line, Breast; read-out: Aza-T-dCyd IC50
Outline: as §1

Hs 688(A).T = Hs 688(A).T cell line, Skin (Melanoma); read-out: Aza-T-dCyd IC50
Outline: as §1

Hs 746T = details: Homo sapiens, Hs746T; Hs 746T cell line, Stomach; read-out: Aza-T-dCyd IC50
Outline: as §1

J-RT3-T3-5 = details: Homo sapiens; J-RT3-T3-5 cell line, T-cell Lymphoma; read-out: Aza-T-dCyd IC50
Outline: as §1

Jurkat = details: Homo sapiens; Jurkat cell line, ALL; read-out: Aza-T-dCyd IC50
Outline: as §1

MALME3M = details: Homo sapiens, Malme-3M; MALME3M cell line, Skin (Melanoma); read-out: Aza-T-dCyd IC50
Outline: as §1

MDA MB 453 = details: Homo sapiens; MDA MB 453 cell line, Breast; read-out: Aza-T-dCyd IC50
Outline: as §1

NAMALWA = NAMALWA cell line, Burkitt's lymphoma; read-out: Aza-T-dCyd IC50
Outline: as §1

NCIH446 = details: Homo sapiens, NCI-H446; NCIH446 cell line, Lung (SCLC); read-out: Aza-T-dCyd IC50
Outline: as §1

PSN-1 = details: Homo sapiens, PSN1; PSN-1 cell line, Pancreas; read-out: Aza-T-dCyd IC50
Outline: as §1

RL95-2 = details: Homo sapiens; RL95-2 cell line, Female GU (Uterus); read-out: Aza-T-dCyd IC50
Outline: as §1

SK-MEL-3 = details: Homo sapiens, SK-MEL3; SK-MEL-3 cell line, Skin (Melanoma); read-out: Aza-T-dCyd IC50
Outline: as §1

SK-N-AS = details: Homo sapiens; SK-N-AS cell line, CNS (Neuroblastoma); read-out: Aza-T-dCyd IC50
Outline: as §1

SK-UT-1 = details: Homo sapiens; SK-UT-1 cell line, Sarcoma; read-out: Aza-T-dCyd IC50
Outline: as §1

SKO-007 = SKO-007 cell line, B-cell myeloma; read-out: Aza-T-dCyd IC50
Outline: as §1

SU-DHL-8 = details: Homo sapiens; SU-DHL-8 cell line, B-cell lymphoma; read-out: Aza-T-dCyd IC50
Outline: as §1

T24 = details: Homo sapiens, T-24; T24 cell line, Bladder; read-out: Aza-T-dCyd IC50
Outline: as §1

T47D = details: Homo sapiens; T47D cell line, Breast; read-out: Aza-T-dCyd IC50
Outline: as §1

TF-1 = details: Homo sapiens; TF-1 cell line, Erythroleukemia; read-out: Aza-T-dCyd IC50
Outline: as §1

VA-ES-BJ = VA-ES-BJ cell line, Sarcoma; read-out: Aza-T-dCyd IC50
Outline: as §1

WiDr = details: Homo sapiens; WiDr cell line, Colon; read-out: Aza-T-dCyd IC50
Outline: as §1

ZR-75-1 = details: Homo sapiens; ZR-75-1 cell line, Breast; read-out: Aza-T-dCyd IC50
Outline: as §1

Work on `Nc1ncn([C@H]2CC(O)[C@@H](CO)S2)c(=O)n1` (stereo partly drawn) [Aza-T-dCyd, 4′-thio-5-aza-2′-deoxycytidine] yielded an IC50 (639-V) of 1570 nM, an IC50 (C32TG) of 953 nM and an IC50 (COR-L105) of 2240 nM. It also gave an IC50 (Caki-2) of 363 nM, an IC50 (D283 Med) of 68.8 nM and an IC50 (DBTRG-05MG) of over 10000 nM. For the same molecule, the IC50 (Daoy) was 3610 nM, the IC50 (H4) was 80.1 nM and the IC50 (Hs 578T) was over 10000 nM. The IC50 (Hs 688(A).T) was over 10000 nM, the IC50 (Hs 746T) was 666 nM and the IC50 (J-RT3-T3-5) was 106 nM. The IC50 (Jurkat) was 69.5 nM, the IC50 (MALME3M) was 7450 nM and the IC50 (MDA MB 453) was 1890 nM. For the same molecule, the IC50 (NAMALWA) was 10.9 nM, the IC50 (NCIH446) was 3040 nM and the IC50 (PSN-1) was 191 nM. It also gave an IC50 (RL95-2) of 705 nM, an IC50 (SK-MEL-3) of 522 nM and an IC50 (SK-N-AS) of 1170 nM. The IC50 (SK-UT-1) was 343 nM, the IC50 (SKO-007) was 4290 nM and the IC50 (SU-DHL-8) was 70.6 nM. For the same molecule, the IC50 (T24) was 1530 nM, the IC50 (T47D) was over 10000 nM and the IC50 (TF-1) was 733 nM. It also gave an IC50 (VA-ES-BJ) of 241 nM, an IC50 (WiDr) of 263 nM and an IC50 (ZR-75-1) of over 10000 nM.

Source: US12708630B2, “Combined therapy of 4′-thio-5-aza-2′-deoxycytidine and Venetoclax” (PINOTBIO, INC., priority 2021, dated 2026)
